In ChEMBL document CHEMBL5257032, “Therapeutic potential of coumarins as antiviral agents” (Eur J Med Chem, 2016):
≈ marks a conversion by molar mass, not a printed value. Values belong to the molecule of their own block, whether it stands above or below them.

Legend:
[1] = biological target: Human immunodeficiency virus type 1 protease (Human immunodeficiency virus 1) (UniProt Q72874); test: (§1) Inhibition of HIV-1 protease
[2] = system: Human immunodeficiency virus; test: Antiviral activity against HIV; assay type: functional, organism-based; conditions: Human immunodeficiency virus 1
[3] = Half life in dog; assay type: ADME, Canis lupus familiaris; conditions: in vivo
[4] = Binding affinity to HIV protease assessed as inhibition constant; parameters: species or system Human immunodeficiency virus
[5] = biological target: Human immunodeficiency virus type 1 reverse transcriptase (Human immunodeficiency virus 1, UniProt Q72547); test: Inhibition of HIV1 reverse transcriptase
[6] = system: Human immunodeficiency virus 1; test: Antiviral activity against HIV-1 infected in CEM-SS cells; assay type: functional, organism-based; conditions: Human immunodeficiency virus 1, CEM-SS
[7] = system: Human alphaherpesvirus 1; test: Antiviral activity against Herpes simplex virus 1; assay type: functional, organism-based
[8] = biological target: T1, Human immunodeficiency virus type 1 protease (Human immunodeficiency virus 1, UniProt Q72874); test: as §1
[9] = system: Human immunodeficiency virus; test: Antiviral activity against HIV infected in human H9 cells; assay type: functional, organism-based; conditions: Human immunodeficiency virus 1, H9; read-out: EC50
[10] = Inhibition of HIV protease; parameters: species or system Human immunodeficiency virus
[11] = Therapeutic index, ratio of IC50 for cytotoxicity against human H9 cells to EC50 for antiviral activity against HIV-1 infected in H9 cells; assay type: toxicity, cell-based; conditions: read-out: Ratio IC50/EC50
[12] = system: Human immunodeficiency virus 1; test: Antiviral activity against HIV-1 infected in human H9 cells; assay type: functional, organism-based; conditions: Human immunodeficiency virus 1, H9; read-out: EC50
[13] = system: Hepatitis C virus; test: Antiviral activity against HCV subtype 1b in Huh-5-2 cells; assay type: functional, organism-based, Hepacivirus hominis
[14] = Inhibition of Hepatitis C virus NS5B polymerase; parameters: species or system Hepacivirus hominis
[15] = Cytotoxicity against African green monkey Vero cells; assay type: toxicity, cell-based; conditions: chlorocebus sabaeus, read-out: CD50 (the source's name)
[16] = system: Human alphaherpesvirus 1; test: Antiviral activity against Herpes simplex virus 1 assessed as reduction in number of plaques at 0.12 mg/ml relative to control; assay type: functional; parameters: scale not given: the % may be the effect or the level left
[17] = biological target: Human immunodeficiency virus type 1 protease (Human immunodeficiency virus 1) (UniProt Q72874); test: Inhibition of HIV-1 protease relative to control; conditions: concentration not given here
[18] = Antiviral activity against HIV-1 infected in human MT4 cells assessed as cell survival relative to control; assay type: functional, Human immunodeficiency virus 1
[19] = biological target: T1, Human immunodeficiency virus type 1 protease; test: Binding affinity to HIV-1 protease assessed as inhibition constant
[20] = system: Human immunodeficiency virus 1; test: Antiviral activity against HIV-1; assay type: functional, organism-based
[21] = system: Human immunodeficiency virus 1; test: Antiviral activity against HIV-1 IIIB infected in human MT4 cells; assay type: functional, organism-based; conditions: Human immunodeficiency virus 1, IIIB
[22] = system: MT4; test: Cytotoxicity against human MT4 cells by MTT assay; assay type: functional; conditions: read-out: TD50 (the source's name)

Compound: O=c1oc2ccccc2c(O)c1C(c1ccc2c(c1)OCO2)c1c(O)c2ccccc2oc1=O
- ID50 [1]: 30 µM

Compound: N#Cc1ccc(S(=O)(=O)Nc2cccc(C(c3c(O)c4c(oc3=O)CCCCCC4)C3CC3)c2)cc1 (stereo not drawn)
- IC50 [2]: 1.5 µM
- half-life [3]: 6 h
- Ki [4]: 0.0008 µM

Compound: CCCc1cc(=O)oc2c3c(c4c(c12)OC(C)(C)C=C4)O[C@H](C)[C@@H](C)C3=O
- IC50 [5]: 19 µM
- EC50 [6]: 1.2 µM

Compound: O=c1oc2ccccc2c(O)c1Sc1c(O)c2ccccc2oc1=O
- ID50 [1]: 21 µM

Compound: COc1ccc(C2OC(COc3cc(=O)oc4ccccc34)=NN2C(C)=O)cc1 (stereo not drawn)
- MIC [7]: 130 µg/mL (≈ 330 µM)

Compound: O=c1oc2ccccc2c(O)c1C(c1ccccc1)c1c(O)c2ccccc2oc1=O
- IC50 [8]: 43 µM

Compound: O=c1oc(-c2ccccc2)cc(O)c1Sc1ccccc1
- IC50 [8]: 3 µM

Compound: COC(C)(C)C(O)COc1c2ccoc2cc2oc(=O)ccc12 (stereo not drawn)
- EC50 [9]: 33 µg/mL (≈ 104 µM)

Compound: CC(=O)CC(c1ccccc1)c1c(O)c2ccccc2oc1=O (stereo not drawn) [WARFARIN]
- IC50 [10]: 30 µM

- IC50 [5]: 12.3 µM
Compound: Cc1cc(=O)oc2c3c(c4c(c12)OC(C)(C)C=C4)O[C@H](C)[C@@H](C)[C@@H]3O [(+)-CORDATOLIDE A]

Compound: O=c1ccc2cc3ccoc3cc2o1 [PSORALEN]
- EC50 [9]: 0.1 µg/mL (≈ 0.537 µM)

- IC50 [5]: 19 µM
Compound: Cc1cc(=O)oc2c3c(c4c(c12)OC(C)(C)C=C4)O[C@H](C)[C@@H](C)[C@H]3O

Compound: CCC(c1cccc(NC(=O)CNC(=O)OC(C)(C)C)c1)c1c(O)c2ccccc2oc1=O (stereo not drawn)
- Ki [4]: 0.16 µM

Compound: CC(=O)O[C@@H]1C(OCC(C)C)c2c(ccc3ccc(=O)oc23)OC1(C)C (single isomer, unassigned)
- selectivity ratio [11]: 30.6
- EC50 [12]: 2260 nM

Compound: O=c1oc2ccc(Br)cc2cc1CSc1ncc[nH]1
- EC50 [13]: 5.1 µM

Compound: O=C(O)CCCCC1(c2ccccc2)CC(O)=C(SCCc2ccccc2)C(=O)O1 (stereo not drawn)
- IC50 [8]: 5 µM

Compound: Cc1cc(=O)oc2c3c(ccc12)OC(C)(C)[C@H](OC(=O)C12CCC(C)(C(=O)O1)C2(C)C)[C@@H]3OC(=O)[C@@]12CC[C@](C)(C(=O)O1)C2(C)C
- EC50 [12]: 0.00183 nM

- IC50 [14]: 174 µM
Compound: COc1cc2c(cc1O)oc1c3ccc(O)cc3oc(=O)c21

Compound: O=C(COc1cc(=O)oc2ccccc12)NN1C(=O)CSC1c1ccc(Cl)cc1 (stereo not drawn)
- CC50 [15]: 20 µg/mL (≈ 46.4 µM)
- Activity [16]: 30%
- MIC [7]: 120 µg/mL (≈ 279 µM)

Compound: CC(C)(Cl)C(O)COc1c2occc2cc2ccc(=O)oc12 (stereo not drawn)
- EC50 [9]: 2.25 µg/mL (≈ 6.97 µM)

Compound: CCCc1cc(=O)oc2c3c(c4c(c12)OC(C)(C)C=C4)O[C@H](C)[C@@H](C)[C@H]3O [(+)-CALANOLIDE B]
- IC50 [5]: 15 µM
- EC50 [6]: 0.4 µM

Compound: CCOC(=O)C(C(C)=O)C(c1cccc([N+](=O)[O-])c1)c1c(O)c2ccccc2oc1=O (stereo not drawn)
- inhibition [17]: 25%
- IC50 [8]: 1e-05 µM
- Survival [18]: 78%

- Ki [19]: 0.015 µM
Compound: CCC(Cc1ccccc1)c1cc(O)c(C(c2cccc(N[C@@H](C)C(=O)OC(C)(C)C)c2)C2CC2)c(=O)o1 (stereo partly drawn)

Compound: Cc1cc(SC2=C(O)C[C@@](CCc3ccc(N)cc3)(C(C)C)OC2=O)c(C(C)(C)C)cc1CO
- EC50 [8]: 0.2 µM

Compound: COc1ccc2c(O)c(-c3ccccc3)c(=O)oc2c1
- IC50 [2]: 23.8 µM

Compound: Cc1cc(=O)oc2c1ccc1oc(C(=O)c3ccccc3)c(-c3ccccc3)c12
- EC50 [20]: 0.0013 µM

Compound: O=c1oc(-c2ccccc2)cc(O)c1C(SC1CCCC1)C1CCCC1 (stereo not drawn)
- IC50 [8]: 0.225 µM

- Ki [4]: 0.7 µM
Compound: CCC(c1ccccc1)c1c(O)c2c(oc1=O)CCC2 (stereo not drawn)

- IC50 [14]: 36.1 µM
Compound: COc1cc(O)c2c(c1)oc(=O)c1c3cc(O)c(O)cc3oc21 [WEDELOLACTONE]

Compound: CCC(c1ccccc1)c1c(O)c2ccccc2oc1=O (stereo not drawn) [PHENPROCOUMON]
- EC50 ([2]; read-out: ED50 (the source's name)): 100 µM
- Ki [4]: 1 µM

Compound: CCC(Cc1ccccc1)c1cc(O)c(C(c2cccc(NC(=O)[C@H](Cc3c[nH]cn3)NC(=O)OC(C)(C)C)c2)C2CC2)c(=O)o1 (stereo partly drawn)
- IC50 [21]: 3 µM
- CC50 [22]: ≥ 30 µM

- IC50 [14]: 18.5 µM
Compound: COc1cc2c(cc1O)oc(=O)c1c3cc(O)c(O)cc3oc21

- Ki [4]: 0.024 µM
Compound: CCCC(=O)Nc1cccc(C(c2c(O)c3c(oc2=O)CCCCCC3)C2CC2)c1 (stereo not drawn)

- IC50 [14]: 63.8 µM
Compound: O=c1oc2cc(O)c(O)cc2c2oc3cc4c(cc3c12)OCO4

Compound: CC1(C)OC1COc1c2ccoc2cc2oc(=O)ccc12 (stereo not drawn)
- EC50 [9]: 1 µg/mL (≈ 3.49 µM)

- Ki [4]: 0.003 µM
Compound: CC(C)(C)OC(=O)NC(Cc1c[nH]cn1)C(=O)Nc1cccc(C(c2c(O)c3c(oc2=O)CCCCCC3)C2CC2)c1 (stereo not drawn)

Compound: COc1c2ccoc2cc2oc(=O)ccc12 [BERGAPTEN]
- EC50 [9]: 0.354 µg/mL (≈ 1.64 µM)
